According to article PMC10901950, “Neuroprotective and Anti-inflammatory Effects of Rubiscolin-6 Analogs with Proline Surrogates in Position 2” (Neurochemical Research, 2023):
Numbered stars: 1 amine (or outer) side, 2 acyl side, 3 side chain; on linkers, the order of the positions; unused ones are H or OH. Square brackets hold non-standard residues; d marks the D form. Ends that are not written are not given here. Peptide text beside a SMILES is read from it. Nip(3R) = O=C([C@@H]1CCCN([*:1])C1)[*:2]; Dmt = Cc1cc(O)cc(C)c1C[C@H](N)C(=O)O; Inp = O=C(O)C1CCNCC1

What was measured:
Caspase-3 = Caspase-3 activity in 6-OHDA-treated SH-SY5Y cells; assay type: cell-based, human; conditions: 6-OHDA 100 µM, 6 h
Procedure: Caspase-3 activity was assessed using “Caspase-3 fluorometric assay” (Sigma, St. Louis, MO, USA) with minor changes adapted by Silva et al.. The cells were treated with 6-OHDA (100 µM) for 6 h in the presence or absence of peptides. After this period, the culture medium was removed, and cells were rinsed with ice-cold PBS and collected by centrifugation at 3300×g for 5 min. The pellets were resuspended in lysis buffer, incubated for about 20 min on ice and finally centrifuged at 22,500×g, 4 °C, for 20 min. Cell lysates were processed following the manufacturer’s protocol, and fluorescence was read at wavelengths of 360 nm (excitation) and 460 nm (emission). Caspase-3 activity was calculated through the curve slope and presented as Δ fluorescence (a.u.)/mg of protein/min). Staurosporine (STAU, 1 µM) was used as positive control.

AKT = experiment: Western blot, AKT phosphorylation in 6-OHDA-treated SH-SY5Y cells; assay type: cell-based, human; conditions: for AKT phosphorylation / stimulation time for maximum effect on AKT phosphorylation: peptide 10 µM; for AKT phosphorylation: 2.5-10 min, 6-OHDA 100 µM treated cells; for stimulation time for maximum effect on AKT phosphorylation: 6-OHDA-treated cells, p-AKT (Ser473)/total AKT; for effect of peptide on AKT phosphorylation after LY 294002 pre-treatment: LY 294002 20 µM 30 min before peptide 10 µM and 6-OHDA 100 µM, 7.5 min (5), 2.5 min (7)
Procedure: The neuroblastoma SH-SY5Y cells were grown in a 6-well plate and when 80–90% confluent treated with 6-OHDA (100 µM) for 24 h. Then cells were stimulated with peptides for 2.5, 5, 7.5 and 10 min (for AKT) or 24 h (for mTOR). When needed, a 30 min pre-incubation step with LY 294002 was included before analogs and 6-OHDA addition. Stimulation was terminated by aspiration of the medium. Cells were washed 2 times with ice-cold PBS, and then 200 µL of ice-cold lysis buffer [150 mM NaCl, 20 mM Tris–HCl, glycerol, 5 mM EDTA, 0.5 mM phenylmethylsulphonylfluoride (PMSF), 10% Triton X-100, 100 mM protease inhibitors, pH 7.4] was added. Cells were incubated on ice for 15 min. Lysates were then centrifuged at 12,000×g for 10 min at 4 °C, and the supernatants were used as the total cell lysates. The protein content in the supernatants was quantified using the Bio-Rad protein assay kit. Equal amounts of protein were separated on 10% sodium dodecyl sulfate (SDS)-polyacrylamide gels and transferred to polyvinylidene difluoride membranes from (PVDF, Millipore, Cork, Ireland). Non-specific binding was blocked with tris-buffered saline Tween-20 (TBS-T: 150 mM NaCl, 20 mM Tris–HCl, 0.1% Tween 20, pH 7.5) containing 5% nonfat milk for 2 h at room temperature. Then, the membrane was incubated overnight at 4 °C with one of the following specific primary antibodies: Vinculin (1:1000 dilution; Cell Signalling Technology, Danvers, MA, USA), p-AKT (1:1000 dilution; Cell Signalling Technology, Danvers, MA, USA), AKT (1:1000 dilution; Cell Signalling Technology, Danvers, MA, USA), p-mTOR (1:1000 dilution; Cell Signalling Technology, Danvers, MA, USA), mTOR (1:1000 dilution; Cell Signalling Technology, Danvers, MA, USA). After incubation, membranes were washed six times per 5 min with TBS-T. In the next step, membranes were incubated with HRP-conjugated secondary antibodies (1:1000 dilution; Cell Signalling Technology, Danvers, MA, USA) for 1 h. Following six washes with TBS-T, the protein bands were detected with the Clarity Western ECL reagent from Bio-Rad. The band intensity was quantified by NIH ImageJ densitometric analysis. For quantification, specific phosphorylation was calculated as the ratio of phosphorylated AKT or mTOR signals to the total Akt or mTOR signal detected. Values of unstimulated samples were set to 1.0. The original immunoblots are provided in Supplementary data.

[1] = tested on: LPS-stimulated RAW 264.7 cells; experiment: Nitric oxide production in LPS-stimulated RAW 264.7 cells (Griess); assay type: cell-based, mouse; conditions: LPS 1 µg/mL, 24 h
Procedure: The level of NO production was determined in RAW 264.7 cells. Briefly, after cells attachment, they were treated with LPS (Millipore Sigma, Darmstadt, Germany) at 1 µg/mL for 24 h, and then the peptides were added for an additional 24 h. After cells’ treatment, the medium was collected, and the accumulation of NO metabolite in the cell culture supernatant was measured using Griess reagent (1% sulfanilamide and 0.1% naphthylethylenediamine dihydrochloride; Sigma Aldrich), where 50 µL of the supernatant was mixed with 50 µL of Griess reagent (40 mg/mL) in a 96-well plate. After incubation at room temperature and darkness for 10 min, the absorbance was measured at 540 nm. Cells treated with LPS without samples were used as the positive control of the inflammatory response.

[2] = tested on: Male Swiss albino CD1 mice; experiment: Spontaneous locomotor activity after icv injection; assay type: in vivo, mouse; conditions: healthy mice, recording from 10 min after injection, 8-10 mice per group
Procedure: Male Swiss albino CD1 mice (JANVIER LABS, Le Genest-Saint-Isle, France), weighing 20–26 g, were used in the in vivo experiments. The animals were housed in Makrolon cages (L: 40 cm, W: 25 cm, H: 18 cm; 20 mice/cage), with free access to a standard semisynthetic laboratory diet (RM3, SDS, DIETEX-France, Saint-Gratien, France). All animals were kept in a ventilated room, at a temperature of 22 ± 1 °C, under a 12-h light/12-h dark cycle (lights on between 7:00 a.m. and 7:00 p.m.).
Intracerebroventricular (icv) injections (10 µL/mouse) of R-6 and its analogs were performed in the left brain ventricle of manually immobilized mice, with a Hamilton microsyringe ([…], Hamilton, Bonaduz, Switzerland) connected to a needle (length: 3.5 mm, diameter: 0.5 mm), as described elsewhere. Intracerebroventricular injections were performed by an experienced investigator, who frequently controlled the regularity and success of the injections using a methylene blue dye and observed (after sacrifice and frontal brain sectioning) that the injection was successful in more than 95% of trials. It was also verified in several animals, after sacrifice, that the mark of the needle puncture on the parietal bone was located at least 1.5 mm behind the bregma and at least 2.5 mm before the lambda, with laterality between 1 and 2 mm relative to the brain median line. This corresponds to stereotaxic coordinates of the left lateral ventricle in Lehmann’s atlas for mice (Lehmann, 1974): anteriority 2.95e4.15 mm, laterality 0.95e2 mm, and depth 3e4.5 mm. All drugs for icv administration were dissolved in 0.9% NaCl just before treatment. The icv injection method was approved by the Regional Ethical Committee for Animal Experimentation (Normandy; no. N/10-04-04-12).
Tested peptides were dissolved in DMSO and diluted with saline solution to the desired concentrations.
Locomotor activity was assessed automatically in a computerized actimeter (Omnitech Electronics, Inc., Columbus, Ohio, USA) which monitored horizontal displacements and vertical movements. Ten minutes after the icv injection, mice were placed individually in 20 × 20 × 30 cm compartments in a dimly illuminated and quiet room, and then motor activity was recorded. The responses were expressed as the number of crossed beams by the mouse during three consecutive 20 min periods.

[3] = peptide 0.1 µM (lowest concentration)

Row | Molecule | effect on Caspase-3 activity induced by 6-OHDA (Caspase-3; peptide 10 µM) | effect on Caspase-3 activity induced by 6-OHDA (Caspase-3; peptides 0.1-10 µM) | AKT phosphorylation (AKT) | stimulation time for maximum effect on AKT phosphorylation (AKT) [min] | effect on LPS-induced NO production [1, 3] | effect on spontaneous (horizontal) locomotor activity [2] | effect of peptide on AKT phosphorylation after LY 294002 pre-treatment (AKT) | effect on LPS-induced NO production ([1]; peptide 10 µM) | NO level reached (relative to unstimulated control) ([1]; LPS alone exceeded 330%) [%]
1 | Cc1cc(O)cc(C)c1C[C@H](N)C(=O)N1CCC[C@H]1C(=O)N[C@@H](CC(C)C)C(=O)N[C@@H](CC(=O)O)C(=O)N[C@@H](CC(C)C)C(=O)N[C@@H](Cc1ccccc1)C(=O)O [analog 1, Dmt-Pro-Leu-Asp-Leu-Phe-OH] (H-[Dmt]PLDLF-OH) | showed the potency to suppress | – | – | – | – | – | – | – | –
2 | CC(C)C[C@H](NC(=O)C1CCN(C(=O)[C@@H](N)Cc2ccc(O)cc2)CC1)C(=O)N[C@@H](CC(=O)O)C(=O)N[C@@H](CC(C)C)C(=O)N[C@@H](Cc1ccccc1)C(=O)O [analog 3, Tyr-Inp-Leu-Asp-Leu-Phe-OH] (H-Y[Inp]LDLF-OH) | – | most efficiently | transiently stimulated | 7.5 | most effectively reduced | do not affect locomotor activity | – | – | –
3 | Cc1cc(O)cc(C)c1C[C@H](N)C(=O)N1CCC[C@@H](C(=O)N[C@@H](CC(C)C)C(=O)N[C@@H](CC(=O)O)C(=O)N[C@@H](CC(C)C)C(=O)N[C@@H](Cc2ccccc2)C(=O)O)C1 [analog 4, Dmt-(R)-Nip-Leu-Asp-Leu-Phe-OH] (H-[Dmt][Nip(3R)]LDLF-OH) | – | – | – | – | most effectively reduced | – | – | – | –
4 | Cc1cc(O)cc(C)c1C[C@H](N)C(=O)N1CCC(C(=O)N[C@@H](CC(C)C)C(=O)N[C@@H](CC(=O)O)C(=O)N[C@@H](CC(C)C)C(=O)N[C@@H](Cc2ccccc2)C(=O)O)CC1 [analog 5, Dmt-Inp-Leu-Asp-Leu-Phe-OH] (H-[Dmt][Inp]LDLF-OH) | – | active only at the highest dose | transiently stimulated | 7.5 | most effectively reduced | do not affect locomotor activity | significantly blocked | comparable to the level determined in unstimulated cells | –
5 | CC(C)C[C@H](NC(=O)C1CCN(C(=O)[C@@H](N)Cc2ccc(O)cc2)CC1)C(=O)N[C@@H](CC(=O)O)C(=O)N[C@@H](CC(C)C)C(=O)N[C@@H](Cc1ccccc1)C(N)=O [analog 7, Tyr-Inp-Leu-Asp-Leu-Phe-NH2] (H-Y[Inp]LDLF-NH2) | – | most efficiently | transiently stimulated | 2.5 | most effectively reduced | do not affect locomotor activity | significantly blocked | – | ~125
6 | YPLDLF [R-6, rubiscolin-6] | – | didn’t decrease | – | – | – | do not affect locomotor activity | – | – | –
